Test results as given in PubChem BioAssay (NCI).
“And” between values parts separate entries of the source, which are not always exact repeats. Equal entries are not always repeated.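 These data come from cells grown in 96-well plates and exposed to compound for 48 hours at five concentrations. GI50: concentration for 50% inhibition of growth. Definition used: TGI = concentration required for complete inhibition of growth.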

Experiments:
Test in all cases: inhibition of tumour cell growth, NCI panel, 48 h
COLO 205 colon = tested on: COLO 205 colon
EKVX NSCLC = tested on: EKVX NSCLC
SK-MEL-28 melanoma = tested on: SK-MEL-28 melanoma
SK-OV-3 ovarian = tested on: SK-OV-3 ovarian
SN12C renal = tested on: SN12C renal
K-562 leukemia = tested on: K-562 leukemia
M14 melanoma = tested on: M14 melanoma
RXF 393 renal = tested on: RXF 393 renal
NCI-H23 lung = tested on: NCI-H23 lung
SR leukemia = tested on: SR leukemia

| Compound | TGI (COLO 205 colon) [µM] | TGI (EKVX NSCLC) | TGI (SK-MEL-28 melanoma) [µM] | TGI (SK-OV-3 ovarian) | TGI (SN12C renal) | TGI (K-562 leukemia) | TGI (M14 melanoma) [µM] | TGI (RXF 393 renal) | TGI (NCI-H23 lung) [µM] | GI50 (COLO 205 colon) [µM] | GI50 (EKVX NSCLC) | GI50 (SK-MEL-28 melanoma) [µM] | GI50 (SK-OV-3 ovarian) [µM] | GI50 (SN12C renal) | GI50 (K-562 leukemia) | GI50 (M14 melanoma) [µM] | GI50 (RXF 393 renal) [µM] | GI50 (NCI-H23 lung) [µM] | TGI (SR leukemia) [µM] | GI50 (SR leukemia) [µM] |
| --- | --- | --- | --- | --- | --- | --- | --- | --- | --- | --- | --- | --- | --- | --- | --- | --- | --- | --- | --- | --- |
| CN(C)CCNC(=O)c1cccc2c1nc(-c1ccc(F)cc1)c1ccccc12 | 14.3 | 21.7 µM | 20.3 | 21.1 µM | 16 µM | 11.7 µM | 18.7 | 12 µM | 18.6 | – | – | – | – | – | – | – | – | – | – | – |
| CSc1ccc(C2=C(c3ccccc3)C(=O)OC2)cc1 | > 100 | > 100 µM | > 100 | > 100 µM | > 100 µM | > 100 µM | > 46.1 | – | > 41.1 | 0.763 | 5.76 µM | 6.69 | 1.51 | 7.68 µM | 0.101 µM | 0.483 | 1.87 | 3.78 | – | – |
| O=C(CS(=O)(=O)c1nc2ccccc2nc1-c1ccccc1)Nc1ccc(F)cc1 | > 100 | > 100 µM | > 100 | > 100 µM | > 100 µM | 16.6 µM | > 100 | > 100 µM | > 100 | 65.1 | > 100 µM | > 100 | > 100 | 33.9 µM | 3.83 µM | > 100 | > 100 | > 100 | – | – |
| Cc1ccc(C(=O)CC2(O)C(=O)Nc3c(C)cc(Cl)cc32)cc1 (configuration not stated) | > 100 | > 100 µM | > 100 | > 100 µM | > 100 µM | > 100 µM | > 100 | > 100 µM | > 100 | – | – | – | – | – | – | – | – | – | – | – |
| O=C1CC2OCC=C3CN4CCC56c7ccccc7N1C5C2C3CC46O (configuration not stated) | > 100 | > 100 µM | > 100 | > 100 µM | > 100 µM | > 100 µM | > 100 | – | > 100 | – | – | – | – | – | – | – | – | – | – | – |
| O=C(c1ccc(O)cc1O)C1C(c2ccc(O)cc2)OC(c2ccc(O)cc2)C1C(=O)c1ccc(O)cc1O (configuration not stated) | – | 60 µM | 36 | – | – | – | 34.5 | 45.5 µM | 74.2 | – | – | – | – | – | – | – | – | – | – | – |
| COC1=C(N)C(=O)c2nc(-c3nc(C(=O)O)c(C)c(-c4ccc(OC)c(OC)c4O)c3N)ccc2C1=O | – | 0.0349 µM and 0.0896 µM | – | 0.0272 µM and 0.0174 µM | 0.00884 µM and 0.0161 µM | 0.277 µM and 0.102 µM and 0.0281 µM | – | 15 nM [middle of 4 runs] | – | – | 0.00938 µM and 0.0215 µM | – | – | 0.00175 µM and 0.0149 µM | 0.0237 µM and 0.0112 µM and < 0.01 µM | – | – | – | – | – |
| Cn1cc(/C=C\[N+](=O)[O-])c2ccccc21 | > 100 | > 100 µM | 50.3 | > 100 µM | > 100 µM | > 100 µM | > 100 | 32.3 µM | > 100 | 42.3 | > 100 µM | 23.3 | > 100 | > 100 µM | 34.8 µM | 37.1 | 17.6 | 74.7 | – | – |
| CCOC1=C2N=C(C(CC)c3ccccc3F)N=C2C(=O)c2ccccc21 (configuration not stated) | > 100 | > 100 µM | > 100 | – | > 100 µM | > 100 µM | > 100 | 74.8 µM | > 100 | – | – | – | – | – | – | – | – | – | > 100 | – |
| CC(=O)Nc1ccc(C(=O)CCl)cc1 | 3.93 | – | 7.54 | 28.3 µM | 19.2 µM | 5.88 µM | 7.38 | 11.6 µM | 31.6 | 1.97 | – | 2.49 | 15.1 | 5.35 µM | 2.48 µM | 2.56 | 3.41 | 11.4 | 7.33 | 2.63 |
| Cc1ccc(NC(=O)CCc2nc(=S)[nH][nH]2)cc1 | > 100 | > 100 µM | > 100 | > 100 µM | > 100 µM | > 100 µM | > 100 | – | > 100 | – | – | – | – | – | – | – | – | – | > 100 | – |
| Cc1ccccc1N=Nc1c(O)ccc2ccccc12 | > 100 | > 100 µM | > 100 | > 100 µM | > 100 µM | > 100 µM | > 100 | > 100 µM | > 100 | – | – | – | – | – | – | – | – | – | – | – |
| O=C1Nc2ccc(Cl)cc2/C1=C\c1c(-c2ccc(Cl)cc2)nc2sc(C3CC3)nn12 | 23.9 | – | 13.7 | 6.64 µM | 14.2 µM | 24.7 µM | 21.8 | 5.09 µM | 17.6 | 5.77 | – | 3.49 | 2.51 | 3.54 µM | 7.37 µM | 5.77 | 1.91 | 4.39 | 75.8 | 12.6 |
| COc1cc(-c2cc(/C=C/C(=O)c3ccc(F)c(F)c3)[nH]n2)cc(OC)c1OC | 3.19 | – | 28.2 | 58.6 µM | 25.5 µM | 16.5 µM | 11.9 | 6.34 µM | 8.5 | 1.69 | – | 5.31 | 3.53 | 3.37 µM | 3.31 µM | 2.7 | 2.05 | 2.6 | > 100 | 2.92 |
| COC1C2C[C@@H](O)CCC2C(C(=O)OCCl)C[C@H]1O (some centres not stated) | > 100 | – | > 100 | > 100 µM | > 100 µM | > 100 µM | > 100 | > 100 µM | – | – | – | – | – | – | – | – | – | – | > 100 | – |
| Cc1cc(=O)oc2ccc(OC/C=C3\CCC(=O)O3)cc12 | 7.24 | 45.6 µM | 23.5 | 26.2 µM | 31.4 µM | > 100 µM | 5.37 | 21.3 µM | 25.2 | 2.17 | 18.7 µM | 11.3 | 13.1 | 13.5 µM | 7.79 µM | 1.75 | 5.85 | 10.4 | – | – |
| NC1NC=NC2C1N=CN2C1OC(CO)C2[O][Sn][O]C21 (configuration not stated) | > 100 | > 100 µM | > 100 | > 100 µM | > 100 µM | > 100 µM | > 100 | > 100 µM | > 100 | > 100 | > 100 µM | > 100 | > 100 | 1.98 µM | > 100 µM | > 100 | > 100 | > 100 | – | – |
